{"source": "patent US8858979B1", "about": "“Service induced byproducts for localized drug delivery in orthopaedic implants” (Clemson University, priority 2011, dated 2014)", "origin": "cited, not measured here", "system": "cell proliferation", "conditions": "reported data, estimated", "data": [{"smiles": "NCCCC(O)(P(=O)([O-])O)P(=O)(O)O.[Na+]", "note": "[alendronate, alendronate sodium]", "values": [{"measurement": "concentration that can inhibit cell proliferation", "result": "about 10^−4 M"}]}]}
